Source: PubChem BioAssay (NCI)
“And” between values parts separate entries of the source, which are not always exact repeats. Equal entries are not always repeated.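 Protocol summary: plate cells (96-well), add compound at 5 concentrations, incubate 48 h, interpolate endpoints linearly. Here, GI50 denotes the concentration required for 50% inhibition of growth. TGI marks complete inhibition of growth.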

Key:
Assay in all cases: DTP human tumour cell line panel, 48 h
786-0 renal = system: 786-0 renal
A498 renal = system: A498 renal
A549 NSCLC = system: A549 NSCLC
ACHN renal = system: ACHN renal
BT-549 breast = system: BT-549 breast
CAKI-1 renal = system: CAKI-1 renal
CCRF-CEM leukemia = system: CCRF-CEM leukemia
COLO 205 colon = system: COLO 205 colon
DU-145 prostate = system: DU-145 prostate
HCC-2998 colon = system: HCC-2998 colon
HCT-116 colon = system: HCT-116 colon
HCT-15 colon = system: HCT-15 colon
HL-60(TB) leukemia = system: HL-60(TB) leukemia
HOP-62 NSCLC = system: HOP-62 NSCLC
HOP-92 NSCLC = system: HOP-92 NSCLC
HS 578T breast = system: HS 578T breast
HT29 colon = system: HT29 colon
IGROV1 ovarian = system: IGROV1 ovarian
K-562 leukemia = system: K-562 leukemia
KM12 colon = system: KM12 colon
LOX IMVI melanoma = system: LOX IMVI melanoma
M14 melanoma = system: M14 melanoma
MALME-3M melanoma = system: MALME-3M melanoma
MCF7 breast = system: MCF7 breast
MDA-MB-231 breast = system: MDA-MB-231 breast
MDA-MB-435 = system: MDA-MB-435
MOLT-4 leukemia = system: MOLT-4 leukemia
NCI-H226 lung = system: NCI-H226 lung
NCI-H23 lung = system: NCI-H23 lung
NCI-H460 lung = system: NCI-H460 lung
NCI-H522 lung = system: NCI-H522 lung
NCI/ADR-RES ovarian = system: NCI/ADR-RES ovarian
OVCAR-3 ovarian = system: OVCAR-3 ovarian
OVCAR-4 ovarian = system: OVCAR-4 ovarian
OVCAR-5 ovarian = system: OVCAR-5 ovarian
OVCAR-8 ovarian = system: OVCAR-8 ovarian
PC-3 prostate = system: PC-3 prostate
RPMI-8226 leukemia = system: RPMI-8226 leukemia
RXF 393 renal = system: RXF 393 renal
SF-268 CNS = system: SF-268 CNS
SF-295 CNS = system: SF-295 CNS
SF-539 CNS = system: SF-539 CNS
SK-MEL-2 melanoma = system: SK-MEL-2 melanoma
SK-MEL-28 melanoma = system: SK-MEL-28 melanoma
SK-MEL-5 melanoma = system: SK-MEL-5 melanoma
SK-OV-3 ovarian = system: SK-OV-3 ovarian
SN12C renal = system: SN12C renal
SNB-19 CNS = system: SNB-19 CNS
SNB-75 CNS = system: SNB-75 CNS
SR leukemia = system: SR leukemia
SW-620 colon = system: SW-620 colon
T-47D breast = system: T-47D breast
TK-10 renal = system: TK-10 renal
U251 CNS = system: U251 CNS
UACC-62 melanoma = system: UACC-62 melanoma
UO-31 renal = system: UO-31 renal

O=C(COc1ccccc1)NNc1ccccc1
GI50 (786-0 renal): > 68.5 µM and 66.1 µM
TGI (786-0 renal): > 300 µM
GI50 (A498 renal): 87.7 µM
TGI (A498 renal): > 300 µM
GI50 (A549 NSCLC): 60.4 µM
GI50 (ACHN renal): 12.5 µM and 13.9 µM
TGI (ACHN renal): > 300 µM
GI50 (BT-549 breast): 90.7 µM
TGI (BT-549 breast): > 300 µM
GI50 (CAKI-1 renal): 6.78 µM and 5.97 µM
TGI (CAKI-1 renal): > 80.2 µM and 182 µM
GI50 (CCRF-CEM leukemia): 8.18 µM
GI50 (COLO 205 colon): 17.6 µM and 11.9 µM
TGI (COLO 205 colon): > 86.6 µM and 197 µM
GI50 (DU-145 prostate): > 300 µM
TGI (DU-145 prostate): > 300 µM
GI50 (HCC-2998 colon): 27.2 µM and 26.6 µM
TGI (HCC-2998 colon): > 300 µM
GI50 (HCT-116 colon): 207 µM
TGI (HCT-116 colon): > 300 µM
GI50 (HCT-15 colon): 8.88 µM and 12.3 µM
TGI (HCT-15 colon): > 300 µM
GI50 (HL-60(TB) leukemia): 3.91 µM and 9.54 µM
TGI (HL-60(TB) leukemia): > 300 µM
GI50 (HOP-62 NSCLC): 116 µM
TGI (HOP-62 NSCLC): > 300 µM
GI50 (HOP-92 NSCLC): 71 µM
TGI (HOP-92 NSCLC): 216 µM
GI50 (HS 578T breast): 98.3 µM
TGI (HS 578T breast): > 300 µM
GI50 (HT29 colon): 264 µM
TGI (HT29 colon): > 300 µM
GI50 (IGROV1 ovarian): > 300 µM
TGI (IGROV1 ovarian): > 300 µM
GI50 (K-562 leukemia): 3.67 µM and 6.43 µM
TGI (K-562 leukemia): > 300 µM
GI50 (KM12 colon): 9.03 µM and 6.49 µM
TGI (KM12 colon): > 300 µM
GI50 (LOX IMVI melanoma): 12.3 µM and 12.2 µM
TGI (LOX IMVI melanoma): > 300 µM
GI50 (M14 melanoma): 15.2 µM and 13.9 µM
TGI (M14 melanoma): 171 µM
GI50 (MALME-3M melanoma): 66.9 µM and 101 µM
TGI (MALME-3M melanoma): > 300 µM
GI50 (MCF7 breast): 47.8 µM and 38.8 µM
TGI (MCF7 breast): > 300 µM
GI50 (MDA-MB-231 breast): 73.2 µM
TGI (MDA-MB-231 breast): > 300 µM
GI50 (MDA-MB-435): 12.2 µM and 16.1 µM
TGI (MDA-MB-435): > 300 µM
GI50 (MOLT-4 leukemia): 25.5 µM and 16.3 µM
TGI (MOLT-4 leukemia): > 300 µM
GI50 (NCI-H226 lung): > 92.3 µM and 224 µM
TGI (NCI-H226 lung): > 300 µM
GI50 (NCI-H23 lung): > 300 µM
TGI (NCI-H23 lung): > 300 µM
GI50 (NCI-H460 lung): 17.1 µM and 15.8 µM
TGI (NCI-H460 lung): > 300 µM
GI50 (NCI-H522 lung): 7.79 µM
GI50 (NCI/ADR-RES ovarian): 58.1 µM and 63.3 µM
TGI (NCI/ADR-RES ovarian): > 300 µM
GI50 (OVCAR-3 ovarian): > 95.4 µM and 191 µM
TGI (OVCAR-3 ovarian): > 300 µM
GI50 (OVCAR-4 ovarian): > 300 µM
TGI (OVCAR-4 ovarian): > 300 µM
GI50 (OVCAR-5 ovarian): 144 µM
TGI (OVCAR-5 ovarian): > 300 µM
GI50 (OVCAR-8 ovarian): > 56.1 µM and 58.3 µM
TGI (OVCAR-8 ovarian): > 300 µM
GI50 (PC-3 prostate): 45.3 µM and 44.1 µM
TGI (PC-3 prostate): > 300 µM
GI50 (RPMI-8226 leukemia): 68.3 µM and 274 µM
TGI (RPMI-8226 leukemia): > 300 µM
GI50 (RXF 393 renal): 98.9 µM
TGI (RXF 393 renal): > 300 µM
GI50 (SF-268 CNS): 140 µM
TGI (SF-268 CNS): > 300 µM
GI50 (SF-295 CNS): 18.3 µM and 11.2 µM
TGI (SF-295 CNS): > 300 µM
GI50 (SF-539 CNS): 18.1 µM and 9.52 µM
TGI (SF-539 CNS): 55.1 µM and 37.6 µM
GI50 (SK-MEL-2 melanoma): 74.5 µM
TGI (SK-MEL-2 melanoma): > 300 µM
GI50 (SK-MEL-28 melanoma): > 300 µM
TGI (SK-MEL-28 melanoma): > 300 µM
GI50 (SK-MEL-5 melanoma): 46.2 µM and 104 µM
TGI (SK-MEL-5 melanoma): > 300 µM
GI50 (SK-OV-3 ovarian): 254 µM
TGI (SK-OV-3 ovarian): > 300 µM
GI50 (SN12C renal): > 300 µM
TGI (SN12C renal): > 300 µM
GI50 (SNB-19 CNS): 234 µM
TGI (SNB-19 CNS): > 300 µM
GI50 (SNB-75 CNS): 60.8 µM
TGI (SNB-75 CNS): 251 µM
GI50 (SR leukemia): > 26.3 µM and 6.77 µM
TGI (SR leukemia): > 300 µM
GI50 (SW-620 colon): 13.4 µM and 18.9 µM
TGI (SW-620 colon): > 300 µM
GI50 (T-47D breast): 35.2 µM and 19 µM
TGI (T-47D breast): > 300 µM
GI50 (TK-10 renal): > 300 µM
TGI (TK-10 renal): > 300 µM
GI50 (U251 CNS): 195 µM
TGI (U251 CNS): > 300 µM
GI50 (UACC-62 melanoma): 2.71 µM and 5 µM
TGI (UACC-62 melanoma): > 79.5 µM and 91.2 µM
GI50 (UO-31 renal): 10.3 µM and 20.1 µM
TGI (UO-31 renal): > 300 µM
